Results on nine compounds are retold here after US8129552B2, “Phospholipids with unsaturated alkyl and acyl chains” (Max-Planck-Gesellschaft zur Forderung der Wissenschaften …, priority 1998, dated 2012).

Data set [1] concerns cell culture. As to conditions: cited from earlier work.
For data set [2], the system named is complex organisms. The following applies: in vivo; cited from earlier work.
Data set [3] concerns tumor. Nature of the data set: Antitumor activity of alkylphosphocholines: T/C and median tumor volume after therapy (Example 5). As to conditions: for T/C (quotient of the median tumor volume in the treated and the control group × 100): evaluation after therapy for 5 weeks. The data set is classed as in vivo. The text has this: Comparison of the Known Antitumor Active Ingredient Erucylphosphocholine with Active Ingredients of the Invention
Comparison of a compound not of the invention (erucylphosphocholine) with two active ingredients of the invention is shown in Table 1.

The subject of data set [4] is tumor. As to conditions: evaluation after therapy for 5 weeks, cited from earlier work.
The conditions of data set [5]: rats; cited from earlier work.
The conditions of data set [6]: oral administration; cited from earlier work.

Where two headings read alike, the source gives them in different places.

For `CCCCCCCCCCCCCCCCCCOCC(COP(=O)([O-])OCC[N+](C)(C)C)OC` (racemic) [ET18-OCH3, 1-O-octadecyl-2-O-methyl-rac-glycero-3-phosphocholine], the “antineoplastic activity in cell-culture experiments” value in data set [1] is “excellent antineoplastic activity”. Besides, the “activity in complex organisms” value in data set [2] was “virtually inactive”.

On to `CCCCCCCC/C=C\CCCCCCCCCCCOP(=O)([O-])OCC[N+](C)(C)C` [(Z)-12-Heneicosenyl-1-phosphocholine, (Z)-12-heneicosenyl-1-phosphocholine], for which the “Median tumor volume, 2 weeks later” value in data set [3] (dose 42 μmol/kg) was 4.5 cm^3; in data set [3] (dose 84 μmol/kg) it was 1.2 cm^3; in data set [3] (dose 170 μmol/kg) it was 0.1 cm^3; in data set [3] (dose 256 μmol/kg), 0.8 cm^3. The “Median tumor volume, End of therapy” value was found to be 3.4 cm^3 in data set [3] (dose 42 μmol/kg), 0.3 cm^3 in data set [3] (dose 84 μmol/kg), 0.1 cm^3 in data set [3] (dose 170 μmol/kg) and 0.2 cm^3 in data set [3] (dose 256 μmol/kg).

In the case of `CCCCC/C=C\CCCC/C=C\CCCCCCCCCOP(=O)([O-])OCC[N+](C)(C)C` [(Z,Z)-10,16-Docosadienyl-1-PC, (Z,Z)-10,16-docosadienyl-1-phosphocholine], the “Median tumor volume, 2 weeks later” value was found to be 11.4 cm^3 in data set [3] (dose 42 μmol/kg), 0.6 cm^3 in data set [3] (dose 84 μmol/kg) and 0.7 cm^3 in data set [3] (dose 170 μmol/kg). Moreover, the results for the “Median tumor volume, End of therapy” value in data set [3] (dose 42 μmol/kg), in data set [3] (dose 84 μmol/kg) and in data set [3] (dose 170 μmol/kg) were 7.5 cm^3, 0.6 cm^3 and 0.5 cm^3, respectively.

As for `CCCCCCCC/C=C\CCCCCCCCCCCCOP(=O)([O-])OCC[N+](C)(C)C` [Erucylphosphocholine, erucylphosphocholine], the “T/C (quotient of the median tumor volume in the treated and the control group × 100)” value in data set [4] (weekly dose 90 μmol/kg) is recorded as 31%; in data set [4] (weekly dose 180 μmol/kg) it was 6%; in data set [4] (weekly dose 360 μmol/kg) it was under 0.1%.

As for `CCCCCCC/C=C\CCCC/C=C\CCCCCOP(=O)([O-])OCC[N+](C)(C)C` [(Z,Z)-6,12-Eicosadienyl-1-PC, (Z,Z)-6,12-eicosadienyl-1-phosphocholine], the “Median tumor volume, 2 weeks later” value in data set [3] (dose 42 μmol/kg) is recorded as 13.9 cm^3; in data set [3] (dose 84 μmol/kg), 13.9 cm^3; in data set [3] (dose 170 μmol/kg), 1.9 cm^3; in data set [3] (dose 256 μmol/kg), 0 cm^3. The “Median tumor volume, End of therapy” value in data set [3] (dose 42 μmol/kg) was found to be 10 cm^3; in data set [3] (dose 84 μmol/kg) it was 3.2 cm^3; in data set [3] (dose 170 μmol/kg), 0.4 cm^3; in data set [3] (dose 256 μmol/kg), 0 cm^3.

`CCCCCCCCCCC/C=C\CCCCCCCCCOP(=O)([O-])OCC[N+](C)(C)C` [(Z)-10-Docosenyl-1-PC, (Z)-10-docosenyl-1-phosphocholine]: the “Median tumor volume, 2 weeks later” value came out at 4.5 cm^3 in data set [3] (dose 42 μmol/kg), 3.4 cm^3 in data set [3] (dose 84 μmol/kg), 0.2 cm^3 in data set [3] (dose 170 μmol/kg) and 0.2 cm^3 in data set [3] (dose 256 μmol/kg). Further, the “Median tumor volume, End of therapy” value in data set [3] (dose 42 μmol/kg) was found to be 4.0 cm^3; in data set [3] (dose 84 μmol/kg), 1.2 cm^3; in data set [3] (dose 170 μmol/kg), 0.2 cm^3; in data set [3] (dose 256 μmol/kg) it was 0.1 cm^3. The results for the “T/C (quotient of the median tumor volume in the treated and the control group × 100)” value in data set [3] (weekly dose 42 μmol/kg), in data set [3] (weekly dose 170 μmol/kg) and in data set [3] (weekly dose 256 μmol/kg) were 9%, 0.5% and 0.2%, respectively.

As to `CCCCCCCCCCCCCCCCOP(=O)([O-])OCC[N+](C)(C)C` [HePC, hexadecylphosphocholine], the “adverse effect of direct intravenous administration of a solution” value in data set [5] was “thrombophlebitis”. Moreover, the “toxicity in clinical studies” value in data set [6] was “toxicities in the gastrointestinal tract”.

As for `CCCCC/C=C\CCCCCCCCCCCCCCCOP(=O)([O-])OCC[N+](C)(C)C` [(Z)-16-Docosenyl-1-phosphocholine, (Z)-16-docosenyl-1-phosphocholine], the “Median tumor volume, End of therapy” value in data set [3] (dose 42 μmol/kg) is recorded as 26.9 cm^3; in data set [3] (dose 84 μmol/kg), 2.5 cm^3; in data set [3] (dose 170 μmol/kg) it was 0.2 cm^3. The figures for the “Median tumor volume, 2 weeks later” value in data set [3] (dose 84 μmol/kg) and in data set [3] (dose 170 μmol/kg) were 7.6 cm^3 and 0.4 cm^3, respectively.

For the compound `C=CCCCCCCCC/C=C\CCCCCCCCCCOP(=O)([O-])OCC[N+](C)(C)C` [(Z)-11,21-Docosadienyl-1-PC, (Z)-11,21-docosadienyl-1-phosphocholine], the “Median tumor volume, 2 weeks later” value in data set [3] (dose 42 μmol/kg) stood at 2.5 cm^3; in data set [3] (dose 84 μmol/kg) it was 2.9 cm^3; in data set [3] (dose 170 μmol/kg), 0.5 cm^3. Besides, the “Median tumor volume, End of therapy” value in data set [3] (dose 42 μmol/kg) is listed as 1.5 cm^3; in data set [3] (dose 84 μmol/kg), 0.9 cm^3; in data set [3] (dose 170 μmol/kg), 0.4 cm^3. Besides, the entries for the “T/C (quotient of the median tumor volume in the treated and the control group × 100)” value in data set [3] (weekly dose 42 μmol/kg) and in data set [3] (weekly dose 170 μmol/kg) were 8% and 2%, respectively.
